Literature values, collected in patent EP2166560A1, “Maldi matrices” (Max-Planck-Gesellschaft zur Förderung der Wissenschaften …, priority 2008, dated 2010).

Conditions: representative medium strong acid

## CCCCCCCCCCCCCCCCCC(=O)O [stearic acid]
  pK: 10.15
